According to paper PMC10917278, “Structural insights into the modulation Of SOD1 aggregation By a fungal metabolite Phialomustin-B: Therapeutic potential in ALS” (PLOS ONE, 2024):
“Also recorded” adds a separate entry of the source.

Columns and labels:
SOD1^WT = molecular target: T1, SOD1^WT (Homo sapiens, UniProt P00441); test: Microscale thermophoresis (MST) binding assay, Cys-labeled SOD1^WT; details: PBS buffer, protein 25 nM, PB 30.5 nM to 250 μM, 25 °C, SEM n = 3, read-out: binding affinity Kd
T1 construct: The full-length constructs of SOD1-wild type (aa: 1–145); His-tag (cleaved yes); made in house; host or cells: E. coli BL21 DE3
T1 sequence (P00441 whole entry): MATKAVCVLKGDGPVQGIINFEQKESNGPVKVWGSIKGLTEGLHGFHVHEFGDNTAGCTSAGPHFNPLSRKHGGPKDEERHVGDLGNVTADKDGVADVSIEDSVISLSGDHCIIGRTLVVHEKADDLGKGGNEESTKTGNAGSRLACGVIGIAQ
Method: To evaluate the binding efficiency of the ligand PB with SOD1^WT, a quantitative binding assay by microscale thermophoresis (MST) was performed. SOD1^WT was labeled at its cysteine residues to ensure non-interference with lysine-containing binding sites of PB (K9, K122, and K128). The cysteine label targeted free cysteines lying away from the ligand-binding site region. The fluorescently labeled SOD1^WT and 16 different concentrations of PB from 250 μM to 30.5 nM were prepared to evaluate the binding interactions between SOD1^WT and PB, as discussed in the methodology. […] The binding affinity was calculated based on the directional movement of molecules along a temperature gradient and the thermophoretic properties of the protein-ligand molecules.
Fig 4 MST interaction analysis of fluorescently labeled SOD1^WT against PB. The binding of PB to fluorescently Cys-labeled SOD1^WT is quantified in PBS buffer. The concentration of PB varied from 30.5 nM to 250 μM, while the protein SOD1^WT was kept constant at 25 nM. MST experiments were conducted at 20% LED excitation and medium MST power at 25 °C. […] Error bars indicate the standard error of the mean, SEM (n = 3).
(§1) Binding studies were performed for SOD1^WT and the ligands using microscale thermophoresis (MST). […]

SOD1^A123F = molecular target: T2, SOD1^A123F (Homo sapiens, UniProt P00441, A124F); test: MST binding assay, site-specific mutant SOD1^A123F; details: PBS buffer, mutant 25 nM, PB 30.5 nM to 250 μM, 25 °C
T2 construct: His-tag (cleaved yes); made in house; host or cells: E. coli BL21-DE3
T2 sequence (P00441 whole entry A124F): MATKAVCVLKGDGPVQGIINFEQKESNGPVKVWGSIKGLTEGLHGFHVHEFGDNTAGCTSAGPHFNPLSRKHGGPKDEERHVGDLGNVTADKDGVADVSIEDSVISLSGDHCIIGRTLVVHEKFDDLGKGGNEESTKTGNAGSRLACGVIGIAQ
Method: To further validate the binding of PB to SOD1, site-directed mutagenesis was performed for the interacting residues at the binding sites of PB. The point mutations generated on the SOD1 protein are K9F, G10P, L42R, and A123F. The MST assay was carried out on these mutants against PB (Fig 5). The dose-response curve with the highest signal-to-noise ratio, high response amplitude, and lowest error rate was selected for measuring the binding affinity (Kd) value. […] Binding at the electrostatic loop is affected majorly by mutating residues at A123 to phenylalanine and L42 to arginine. […] Taken together, the binding affinities of these mutants confirm the ligand bindings at these sites of SOD1 are specific.
Fig 5 MST interaction analysis of fluorescently labeled SOD1 mutants against PB. The binding of PB to fluorescently Cys-labeled SOD1- variants is quantified in PBS buffer. The concentration of PB varied from 30.5 nM to 250 μM, while the respective mutants were kept constant at 25 nM. MST experiments were conducted at 20% LED excitation and medium MST power at 25 °C. […] Error bars indicate the standard error of the mean, SEM (n = 3). […] The ligand PB is printed only in the titles of panels a-d, so the mutant names are used as the substance labels.
as §1

CCCC[C@H](C)/C=C(C)/C=C/C(=O)O [PB, (S, 2E, 4E)-4,6-dimethyldeca-2,4-dienoic acid]
Kd (SOD1^WT): 3.7 ± 1.2 µM
binding affinity Kd (SOD1^A123F): very weak binding; also recorded: weak-binding
